# Source: patent publication US20250221953A1 (The University of Chicago, priority 2022, published 2025)
# Legend:
# mouse CD8^+ T cells [1] = assay: RNA-sequencing of CD8+ T cells with or without TVA (also siNTC / siCreb1); type: cell-based; conditions: 20 μM TVA, 24 h
# [2] = tested on: tumor-infiltrating CD8^+ T cells
# Description: After incubation at 37° C. for 25 min on a shaking platform, the digested tumor tissues were transferred into a 70 μm mesh nylon strainer on a 50 mL conical tube, pushed through the strainer using the rubber end of a syringe plunger, and rinsed with the recommended medium. After centrifugation at 300×g for 10 min at room temperature with the brake on low, the resulting cell pellets were added 10 mL of ammonium chloride solution for incubation at room temperature for 5 minutes, followed by centrifugation at 300×g for 10 minutes at room temperature with the brake on low.
# Freshly excised mouse tumor tissues were minced into small pieces (volume smaller than 1 mm^3) by scissors in PBS, digested by Collagenase IV (1 mg/mL) and DNase I (200 U/mL) at 37° C. for 20 minutes in PBS with gentle rocking. The digested tumor tissues were added 5 times volume 0.01M EDTA, filtered into new tube through 200 mesh screen (100 μm strainer), and then centrifuged at 300×g for 5 minutes at room temperature. The resulting cell pellets were re-suspended with 3 mL PBS, laid gently on 3 mL lymphocytes isolation liquid (pre-warmed to room temperature), and subjected to density gradient centrifugation (300×g, 30 minutes, room temperature, accelerate 6, decelerate 2). The middle layer of cells was moved carefully to a new tube, added PBS to 15 mL, and centrifuged (300×g, 10 minutes, room temperature). The cell pellets (lyse red cells if necessary) were designated tumor-infiltrating lymphocytes and used for following experiments.
# Mouse spleens were disrupted with syringe plunger in 1 mL PBS in a 40 μm strainer filtered to a 15 mL tube, washed with PBS and centrifuged at 300×g for 5 minutes. The resulting cell pellets were re-suspended the with 2 mL red cell lysis buffer (Invitrogen), incubated at room temperature for 10 minutes, and centrifuged at 300×g for 5 minutes after adding 13 mL PBS. The resulting cell pellets was designated splenocytes and used for following experiments.
# Draining lymph nodes were disrupted with syringe plunger in 1 mL PBS in a 40 μm strainer filtered to a 15 mL tube, washed with PBS, and centrifuged at 300×g for 5 minutes. The resulting cell pellets was designated LN Lymphocytes and used for following experiments.
# Mouse primary cells isolated from tumor, spleen, draining lymph node were stained with fluorescent antibodies and analyzed by flow cytometry.
# For experiments with live/dead criteria, cells were first stained with Fixable Viability Dyes (FVD) (Thermo Fisher Scientific) according to the manufacturer's instructions. Subsequent surface marker staining was performed in Flow Cytometry Staining Buffer (Thermo Fisher Scientific). Intracellular staining for flow panels containing nuclear proteins was performed using the eBioscience FoxP3/Transcription Factor Staining Buffer Set (Thermo Fisher Scientific) according to the manufacturer's instructions. For intracellular staining of cytoplasmic proteins, the Fixation/Permeabilization Solution Kit (BD Biosciences) was used according to the manufacturer's instructions.
# For phospho antibody staining, cells were incubated with FVD (cell viability dye) for 15 minutes at room temperature in a tube, re-suspended with 200 μL pre-warmed 1×BD Phosflow Lyse/Fix buffer directly into the tube, and incubated at 37° C. for 10-15 minutes, followed by centrifugation at 300×g for 5 minutes. The resulting cell pellets were washed once with FACS buffer, permeabilized with 200 μL of BD Phosflow Perm Buffer III for 45 minutes on ice, and centrifuged at 300×g for 5 minutes.
# [3] = tested on: mouse primary CD8^+ T cells; assay: cAMP level; type: cell-based; conditions: 20 μM TVA; 0, 20 minutes, 40 minutes, 2 hours
# [4] = tested on: tumor infiltrating immune cells; assay: Tumor immune cell analysis (macrophages, CD8, Tregs, DCs); type: in vivo; conditions: TVA treatment
# Mouse CD4^+ T cell = assay: Second screen: IL-2 level of mouse CD4+ T cells
# human CD8^+ T cells = assay: KAS-seq, human CD8+ T cells; type: cell-based; conditions: 20 μM TVA, 20 min-2 h
# Description: (§1) 500 mM N3-kethoxal was then supplemented into the media followed by brief, vigorous shaking to fully homogenize the solution. The 6-well plates were then moved into the cell incubator (37° C., 5% CO2) for 10 minutes to promote labeling of genomic single-stranded DNA (ssDNA). Cell suspensions were then transferred to 15 mL conical tubes and centrifuged at 300×g for 5 minutes at 4° C. The supernatant media was discarded, and genomic DNA was then extracted. […] Dual index libraries were constructed for high throughput sequencing using an Accel-NGS Methyl-seq DNA library kit and then sequenced at the Genomics Facility (University of Chicago) via Illumina NovaSeq 6000 (SP flowcell, 100 bp cassette) in two separate runs. […] M. musculus and H. sapiens CD8^+ T cell KAS-seq data were assessed separately.
# Mouse CD8^+ T cell = assay: Second screen: IL-2 level of mouse CD8+ T cells
# [5] = tested on: anti-human CD19-CD28z-GFP CAR T cells; assay: CAR-T cell expansion assay; type: cell-based; conditions: 20 μM TVA
# [6] = Extraction and quantification of TVA levels by NMR (mouse serum and TIF); type: in vivo; conditions: B16F10 tumor bearing mice, TVA-enriched diet; 1H NMR
# human primary T cell = assay: IL-2 production of human primary T cells; type: cell-based; conditions: 20 μM TVA (FIG. 17B)
# Text: Two preliminary screens were designed and performed.
# [7] = tested on: mouse primary CD8^+ T cells; assay: In vitro function of activated mouse primary CD8+ T cells (cytokines, Ki-67, apoptosis, p-CREB); type: cell-based
# Description: For experiments with live/dead criteria, cells were first stained with Fixable Viability Dyes (FVD) (Thermo Fisher Scientific) according to the manufacturer's instructions. Subsequent surface marker staining was performed in Flow Cytometry Staining Buffer (Thermo Fisher Scientific). Intracellular staining for flow panels containing nuclear proteins was performed using the eBioscience FoxP3/Transcription Factor Staining Buffer Set (Thermo Fisher Scientific) according to the manufacturer's instructions. For intracellular staining of cytoplasmic proteins, the Fixation/Permeabilization Solution Kit (BD Biosciences) was used according to the manufacturer's instructions. […] The cell pellets were washed again with FACS buffer, centrifuged at 300×g for 5 minutes, and incubated with antibodies in FACS buffer for 45 minutes-1 hour at room temperature. […] Treatment with sulfosuccinimidyl oleate (SSO) was performed by incubating cells with 100 μM SSO for 24 hours.
# mouse CD8^+ T cells [8] = assay: KAS-seq, mouse CD8+ T cells; type: cell-based; conditions: 20 μM TVA, 20 min-2 h
# Description: as §1
# [9] = tested on: human T cell and CD8^+ T cell treated with rhPD-L1; assay: rhPD-L1 exhaustion assay of human T cells and CD8+ T cells; type: cell-based; conditions: 20 μM TVA; 0.5 μg/mL rhPD-L1, 72 hours; IL-2, TNF-α
# influenza virus = assay: Influenza virus challenge of mice; type: in vivo, mouse
# Description: Control mice were born by mothers on normal diet, followed by normal milk feeding and normal diet since weaning.
smiles,measurement,setting,value
"CCCCCC/C=C/CCCCCCCCCC(=O)O [TVA, trans-vaccenic acid]","gene expression (RNA-seq, GSEA)",mouse CD8^+ T cells [1],"enhances expression of the genes enriched in effector CD8^+ T cell function, E2F and MYC pathways"
same,p-CREB and p-STAT1 levels in tumor-infiltrating CD8+ T cells,[2]; B16F10 tumors from syngeneic mice fed on TVA,Increased p-CREB and p-STAT1 levels
same,CD4+ T cell population in TILs,"[2]; TVA diet, B16F10 tumors",not altered
same,tumor-infiltrating populations of neutrophils and monocytes,"[2]; TVA diet, B16F10 tumors",markedly increases tumor-infiltrating populations of neutrophils and monocytes
same,conventional CD4+ T cell or CD4+Foxp3+ Treg cell populations,"[2]; TVA diet, spleens, dLNs and tumors of B16F10 tumor-bearing mice",has no effects on conventional CD4^+ T cell
same,cytokine expression in tumor-infiltrating CD8+ T cells,"[2]; dietary TVA, B16F10 tumors","increased expression levels of cytokines including IL-2, TNF-α, and IFN-γ"
same,exhaustion of CD8+ T cells (PD-1 and LAG-3 expression),"[2]; dietary TVA, tumors and spleens, not dLNs",reduces exhaustion of CD8^+ T cells in tumors and spleens
same,CD8+ T cell population in tumor-infiltrating lymphocytes (TILs),"[2]; enriched diet, B16F10 tumors",increased CD8^+ T cell population
same,cAMP levels in CD8+ T cells,[3],elevates cAMP levels
same,"anti-tumor immunity (CD8+ T cells, dendritic cells, Treg, TAMs)",[4],enhances anti-tumor immunity
same,Mouse CD4^+ T cell IL-2 level changes after treatment,Mouse CD4^+ T cell,155.6%
same,GO enrichment of altered gene bodies (KAS-seq),human CD8^+ T cells,G-protein coupled receptor (GPCR) activities among the top-enriched ontologies
same,Mouse CD8^+ T cell IL-2 level changes after treatment,Mouse CD8^+ T cell,193.6%
same,in vitro expansion of CAR T cells,[5]; 3 lymphoma patients with age between 42 and 47,improves in vitro expansion
same,in vitro expansion of CAR T cells,[5]; elder patient,do not respond to TVA treatment
same,average TVA level in tumor interstitial fluid (TIF),[6],~48 µM
same,average serum TVA level,[6],~386 µM
same,IL-2 production from human primary T cells,human primary T cell,enhances IL-2 production
same,TVA wash-off assay (TVAc vs TVAw),[7]; 20 μM TVA 48 hours vs 24 hours then medium without TVA,effects are reversible
same,"p-CREB level in CD8+ T cells, increasing concentrations","[7]; 8-Bromo-cAMP 0.01-100 μM or TVA 10-1000 μM, 24 hours",dose-dependent manner
same,reversal of SCFA-dependent suppression on CD8+ T cells,[7]; TVA 20 μM with SCFA agonists,able to reverse SCFA-dependent suppression on CD8^+ T cells
same,phosphorylation level of Lck (p-Lck) in CD8+ T cells,[7]; TVA treatment,does not alter phosphorylation level of Lck
same,phosphorylation of CREB in CD8+ T cells,[7]; TVA treatment,promotes phosphorylation of CREB
same,TNF-α and IFN-γ expression of primary CD8+ T cells,[7]; TVA treatment in vitro,increased expression of TNF-α and IFN-γ
same,suppression of CD8+ T cells by pre-treatment with 20 mM acetate (acetate first),"[7]; acetate 12 hours, then TVA 20 μM 12 hours",can be reversed by TVA at 20 μM
same,TVA level sufficient to reverse suppression of CD8+ T cells by acetate,"[7]; acetate at 20 mM, TNF-α",≤ 2 µM
same,GO enrichment of altered gene bodies (KAS-seq),mouse CD8^+ T cells [8],G-protein coupled receptor (GPCR) activities among the top-enriched ontologies
same,exhaustion of primary human bulk T cells and CD8+ T cells treated with recombinant PD-L1,[9],significantly reverses exhaustion
same,survival after influenza virus challenge,"influenza virus; TVA exposure during fetal and infant stages, TVA diet since weaning",significantly increased survival
same,"immune responses to viral exposure, male vs female",influenza virus; TVA mice,better immune responses to viral exposure compared to female TVA mice
